Data from patent US20260125375A1 (Pfizer Inc., priority 2022, published 2026).

Experiments:
CBL-B (residues 36-427) = target: T1, CBL-B (residues 36-427) (Homo sapiens, UniProt Q13191); assay: Ligand Displacement Assay (LDA), HTRF competitive binding against BODIPY-labeled fluorescent tracer, CBL-B; conditions: geometric mean of the number of tests, read-out: CBL-B Ki (nM) GMean
T1 construct: Purified CBL-B (residues 36-427) and C-CBL (residues 46-435) proteins from baculovirus-infected insect cells; made in house; host or cells: baculovirus-infected insect cells
Text: (§1) Ligand Displacement Assay (LDA)
(§2) The purpose of the homogeneous time-resolved fluorescence energy transfer (HTRF) ligand displacement assay is to determine whether the compounds of the disclosure are competitive with a BODIPY-labeled compound; “fluorescent tracer” aka [6-cyclopropyl-5-(17-{5-[(3,5-dimethyl-2H-pyrrol-2-ylidene-KN)methyl]-1H-pyrrol-2-yl-κN}-15-oxo-5,8,11-trioxa-2,14-diazaheptadecan-1-yl)-N-(3-{3-[(4-methyl-4H-1,2,4-triazol-3-yl)methyl]oxetan-3-yl}phenyl)pyridine-2-carboxamidato](difluorido)boron and to assess CBL-B binding selectivity over C-CBL. The synthesis of this fluorescent tracer compound is described below.
(§3) Purified CBL-B (residues 36-427) and C-CBL (residues 46-435) proteins from baculovirus-infected insect cells were biotin labeled on their amino-terminal AviTag™ epitopes by the E. coli biotin ligase BirA to bind terbium-labeled streptavidin (SA-Tb). After optimizing the assays and determining KD values for the fluorescent tracer to CBL-B and C-CBL, compounds were tested using three-fold serial dilutions in duplicate from a top concentration of […] with a final DMSO concentration of 2%. […] The Ki (nM) values reported are the geometric means (GMean) of the number of tests conducted.

C-CBL (residues 46-435) = target: T2, C-CBL (residues 46-435) (Homo sapiens, UniProt P22681); assay: Ligand Displacement Assay (LDA), HTRF competitive binding against BODIPY-labeled fluorescent tracer, C-CBL; conditions: geometric mean of the number of tests, read-out: C-CBL Ki (nM) GMean
T2 construct: Purified CBL-B (residues 36-427) and C-CBL (residues 46-435) proteins from baculovirus-infected insect cells; made in house; host or cells: baculovirus-infected insect cells
T2 sequence (P22681 46-435): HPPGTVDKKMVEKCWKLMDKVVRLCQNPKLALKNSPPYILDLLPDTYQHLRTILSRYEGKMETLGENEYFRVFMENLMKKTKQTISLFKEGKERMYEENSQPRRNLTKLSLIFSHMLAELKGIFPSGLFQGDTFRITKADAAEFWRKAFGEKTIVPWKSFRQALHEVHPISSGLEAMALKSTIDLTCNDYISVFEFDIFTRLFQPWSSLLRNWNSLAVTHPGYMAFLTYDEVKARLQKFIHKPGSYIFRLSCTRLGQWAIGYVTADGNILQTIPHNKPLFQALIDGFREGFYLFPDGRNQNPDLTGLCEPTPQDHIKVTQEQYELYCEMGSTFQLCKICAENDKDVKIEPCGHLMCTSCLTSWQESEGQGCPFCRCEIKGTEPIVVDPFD
Text: as §1, §2, §3

## CN(C)c1nc2[nH]nc(-c3cccc([C@H](c4nncn4C)C4CCC4)c3)c2cc1C(F)(F)F [Example E1, 3-{3-[(R)-cyclobutyl(4-methyl-4H-1,2,4-triazol-3-yl)methyl]phenyl}-N,N-dimethyl-5-(trifluoromethyl)-1H-pyrazolo[3,4-b]pyridin-6-amine]
CBL-B (residues 36-427)
  Ki: 268 nM
C-CBL (residues 46-435)
  Ki: 2320 nM

## CC[C@@H](c1cccc(-c2n[nH]c3c([C@H](C)NC[C@H](C)O)nc(C(F)(F)F)cc23)c1)c1nncn1C (single isomer, unassigned) [Example D78]
CBL-B (residues 36-427)
  Ki: 71.2 nM
C-CBL (residues 46-435)
  Ki: 271 nM

## Cn1cnnc1[C@@H](c1cccc(-c2n[nH]c3ncc(C(F)(F)F)cc23)c1)C1CCC1 [Example A5, 3-{3-[(R)-cyclobutyl(4-methyl-4H-1,2,4-triazol-3-yl)methyl]phenyl}-5-(trifluoromethyl)-1H-pyrazolo[3,4-b]pyridine]
CBL-B (residues 36-427)
  Ki: 89.1 nM
C-CBL (residues 46-435)
  Ki: 1060 nM

## C[C@H](N[C@H]1COC[C@H]1O)c1nc(C(F)(F)F)cc2c(-c3cccc([C@H](c4nncn4C)C4CCC4)c3)n[nH]c12 (single isomer, unassigned) [Example D57]
CBL-B (residues 36-427)
  Ki: 5.2 nM
C-CBL (residues 46-435)
  Ki: 46.7 nM

## Cn1cnnc1[C@@H](c1cccc(-c2n[nH]c3c(C4CCCN4)nc(C(F)(F)F)cc23)c1)C1CCC1 (single isomer, unassigned) [Example L3]
CBL-B (residues 36-427)
  Ki: 20.1 nM
C-CBL (residues 46-435)
  Ki: 159 nM

## C[C@@H](N[C@H]1COC[C@@H]1O)c1nc(C(F)(F)F)cc2c(-c3cccc([C@H](c4nncn4C)C4CCC4)c3)n[nH]c12 (single isomer, unassigned) [Example D62]
CBL-B (residues 36-427)
  Ki: 4.3 nM
C-CBL (residues 46-435)
  Ki: 39.8 nM

## CC(N[C@H](C)[C@H](C)O)c1nc(C(F)(F)F)cc2c(-c3cccc([C@H](c4nncn4C)C4CCC4)c3)n[nH]c12 (single isomer, unassigned) [Example C116]
CBL-B (residues 36-427)
  Ki: 18.2 nM
C-CBL (residues 46-435)
  Ki: 204 nM

## C[C@H](N[C@H]1COC[C@H]1O)c1nc(C(F)(F)F)cc2c(-c3cccc([C@H](c4nncn4C)C4CCC4)c3)n[nH]c12 (single isomer, unassigned) [Example D61]
CBL-B (residues 36-427)
  Ki: 22 nM
C-CBL (residues 46-435)
  Ki: 145 nM

## Cn1cnnc1[C@@H](c1cccc(-c2n[nH]c3c(CN[C@H]4CC[C@H]4O)nc(C(F)(F)F)cc23)c1)C1CCC1 (single isomer, unassigned) [Example D92]
CBL-B (residues 36-427)
  Ki: 4.5 nM
C-CBL (residues 46-435)
  Ki: 36.1 nM

## Cn1cnnc1CC1(c2cccc(-c3n[nH]c4cnc(C(F)(F)F)nc34)c2)COC1 [Example B2, 3-(3-{3-[(4-methyl-4H-1,2,4-triazol-3-yl)methyl]oxetan-3-yl}phenyl)-5-(trifluoromethyl)-1H-pyrazolo[4,3-d]pyrimidine]
CBL-B (residues 36-427)
  Ki: 398 nM
C-CBL (residues 46-435)
  Ki: 2400 nM

## C[C@H](N)c1nc(C(F)(F)F)cc2c(-c3cccc([C@H](c4nncn4C)C4CCCCC4)c3)n[nH]c12 [Example K2, (1S)-1-[3-{3-[(R)-cyclohexyl(4-methyl-4H-1,2,4-triazol-3-yl)methyl]phenyl}-5-(trifluoromethyl)-1H-pyrazolo[3,4-c]pyridin-7-yl]ethan-1-amine]
CBL-B (residues 36-427)
  Ki: 48.6 nM
C-CBL (residues 46-435)
  Ki: 287 nM

## CC(=O)NC(C)c1nc(C(F)(F)F)cc2c(-c3cccc([C@H](c4nncn4C)C4CCC4)c3)n[nH]c12 (single isomer, unassigned) [Example M2]
CBL-B (residues 36-427)
  Ki: 30.9 nM
C-CBL (residues 46-435)
  Ki: 225 nM

## CC(=O)NC(C)c1nc(C(F)(F)F)cc2c(-c3cccc(C4(Cc5nncn5C)COC4)c3)n[nH]c12 (single isomer, unassigned) [Example M6, N-{(1ξ)-1-[3-(3-{3-[(4-methyl-4H-1,2,4-triazol-3-yl)methyl]oxetan-3-yl}phenyl)-5-(trifluoromethyl)-1H-pyrazolo[3,4-c]pyridin-7-yl]ethyl}acetamide]
CBL-B (residues 36-427)
  Ki: 19.5 nM
C-CBL (residues 46-435)
  Ki: 68.6 nM

## Cn1cnnc1CC1(c2cccc(-c3n[nH]c4c(OC5CCCC5)nc(C(F)(F)F)cc34)c2)COC1 [Example J7, 7-(cyclopentyloxy)-3-(3-{3-[(4-methyl-4H-1,2,4-triazol-3-yl)methyl]oxetan-3-yl}phenyl)-5-(trifluoromethyl)-1H-pyrazolo[3,4-c]pyridine]
CBL-B (residues 36-427)
  Ki: 92 nM
C-CBL (residues 46-435)
  Ki: 420 nM

## CC[C@@H](c1cccc(-c2n[nH]c3c([C@@H](C)NC[C@H](C)O)nc(C(F)(F)F)cc23)c1)c1nncn1C (single isomer, unassigned) [Example D79]
CBL-B (residues 36-427)
  Ki: 296 nM
C-CBL (residues 46-435)
  Ki: 1160 nM

## Cn1cnnc1[C@@H](c1cccc(-c2n[nH]c3c(C4CCCN4)nc(C(F)(F)F)cc23)c1)C1CCC1 (single isomer, unassigned) [Example L4]
CBL-B (residues 36-427)
  Ki: 19.2 nM
C-CBL (residues 46-435)
  Ki: 178 nM

## CC(NC[C@H](C)O)c1nccc2c(-c3cccc([C@H](c4nncn4C)C4CCC4)c3)n[nH]c12 (single isomer, unassigned) [Example C125]
CBL-B (residues 36-427)
  Ki: 12.2 nM
C-CBL (residues 46-435)
  Ki: 147 nM

## CC(O)c1nc(C2CC2)cc2c(-c3cccc(C4(Cc5nncn5C)COC4)c3)n[nH]c12 (single isomer, unassigned) [Example H5, (1ξ)-1-[5-cyclopropyl-3-(3-{3-[(4-methyl-4H-1,2,4-triazol-3-yl)methyl]oxetan-3-yl}phenyl)-1H-pyrazolo[3,4-c]pyridin-7-yl]ethan-1-ol]
CBL-B (residues 36-427)
  Ki: 28.5 nM
C-CBL (residues 46-435)
  Ki: 93.6 nM

## Cn1cnnc1CC1(c2cccc(-c3n[nH]c4cc(F)c(F)cc34)c2)COC1 [Example B5, 5,6-difluoro-3-(3-{3-[(4-methyl-4H-1,2,4-triazol-3-yl)methyl]oxetan-3-yl}phenyl)-1H-indazole]
CBL-B (residues 36-427)
  Ki: 58.9 nM
C-CBL (residues 46-435)
  Ki: 375 nM

## CC(O)c1nc(C2CC2)cc2c(-c3cccc(C4(Cc5nncn5C)COC4)c3)n[nH]c12 (single isomer, unassigned) [Example H6, (1ξ)-1-[5-cyclopropyl-3-(3-{3-[(4-methyl-4H-1,2,4-triazol-3-yl)methyl]oxetan-3-yl}phenyl)-1H-pyrazolo[3,4-c]pyridin-7-yl]ethan-1-ol]
CBL-B (residues 36-427)
  Ki: 35.6 nM
C-CBL (residues 46-435)
  Ki: 142 nM

## CC(=O)NC(C)c1nc(C(F)(F)F)cc2c(-c3cccc(C4(Cc5nncn5C)COC4)c3)n[nH]c12 (single isomer, unassigned) [Example M1, N-{(1ξ)-1-[3-(3-{3-[(4-methyl-4H-1,2,4-triazol-3-yl)methyl]oxetan-3-yl}phenyl)-5-(trifluoromethyl)-1H-pyrazolo[3,4-c]pyridin-7-yl]ethyl}acetamide]
CBL-B (residues 36-427)
  Ki: 26.3 nM
C-CBL (residues 46-435)
  Ki: 79.4 nM

## Cn1cnnc1CC1(c2cccc(-c3n[nH]c4ccc(F)cc34)c2)COC1 [Example B6, 5-fluoro-3-(3-{3-[(4-methyl-4H-1,2,4-triazol-3-yl)methyl]oxetan-3-yl}phenyl)-1H-indazole]
CBL-B (residues 36-427)
  Ki: 71.8 nM
C-CBL (residues 46-435)
  Ki: 437 nM

## CN1CCC[C@@H]1COc1nc(C(F)(F)F)cc2c(-c3cccc(C4(Cc5nncn5C)COC4)c3)n[nH]c12 [Example J6, 7-{[(2R)-1-methylpyrrolidin-2-yl]methoxy}-3-(3-{3-[(4-methyl-4H-1,2,4-triazol-3-yl)methyl]oxetan-3-yl}phenyl)-5-(trifluoromethyl)-1H-pyrazolo[3,4-c]pyridine]
CBL-B (residues 36-427)
  Ki: 48.9 nM
C-CBL (residues 46-435)
  Ki: 196 nM

## C[C@@H](N)c1nc(C(F)(F)F)cc2c(-c3cccc([C@H](c4nncn4C)C4CCCCC4)c3)n[nH]c12 [Example K1, (1R)-1-[3-{3-[(R)-cyclohexyl(4-methyl-4H-1,2,4-triazol-3-yl)methyl]phenyl}-5-(trifluoromethyl)-1H-pyrazolo[3,4-c]pyridin-7-yl]ethan-1-amine]
CBL-B (residues 36-427)
  Ki: 36 nM
C-CBL (residues 46-435)
  Ki: 289 nM

## C[C@H](NC(=O)OC(C)(C)C)c1nc(C(F)(F)F)cc2c(-c3cccc(C4(Cc5nncn5C)COC4)c3)n[nH]c12 [Example K8]
CBL-B (residues 36-427)
  Ki: 33.4 nM
C-CBL (residues 46-435)
  Ki: 133 nM

## Cn1cnnc1[C@@H](c1cccc(-c2n[nH]c3c(CN[C@@H]4CC[C@@H]4O)nc(C(F)(F)F)cc23)c1)C1CCC1 (single isomer, unassigned) [Example D93]
CBL-B (residues 36-427)
  Ki: 0.8 nM
C-CBL (residues 46-435)
  Ki: 2.4 nM

## C[C@@H](N[C@@H]1COC[C@H]1O)c1nc(C(F)(F)F)cc2c(-c3cccc([C@H](c4nncn4C)C4CCC4)c3)n[nH]c12 (single isomer, unassigned) [Example D60]
CBL-B (residues 36-427)
  Ki: 12.3 nM
C-CBL (residues 46-435)
  Ki: 82.3 nM

## CC(NC(=O)[C@@H](C)O)c1nc(C(F)(F)F)cc2c(-c3cccc([C@H](c4nncn4C)C4CCC4)c3)n[nH]c12 (single isomer, unassigned) [Example I6]
CBL-B (residues 36-427)
  Ki: 7.8 nM
C-CBL (residues 46-435)
  Ki: 84.3 nM

## CC(N[C@H]1CCC[C@@H]1O)c1nc(C(F)(F)F)cc2c(-c3cccc([C@H](c4nncn4C)C4CCCCC4)c3)n[nH]c12 (single isomer, unassigned) [Example C102]
CBL-B (residues 36-427)
  Ki: 10.7 nM
C-CBL (residues 46-435)
  Ki: 113 nM

## CC(=O)NC(C)c1nc(C(F)(F)F)cc2c(-c3cccc([C@H](c4nncn4C)C4CCC4)c3)n[nH]c12 (stereo partly drawn) [Example M3]
CBL-B (residues 36-427)
  Ki: 29 nM
C-CBL (residues 46-435)
  Ki: 214 nM
